Laboratory results taken from paper PMC7708446, “^18F-meta-fluorobenzylguanidine (^18F-mFBG) to monitor changes in norepinephrine transporter expression in response to therapeutic intervention in neuroblastoma models” (Scientific Reports, 2020).
Marks after values point to notes of the source that are not given here.

Experiments:
[1] = test system: Kelly xenografts; experiment: Ex vivo biodistribution (γ-counter), mice bearing Kelly xenografts; format: in vivo; settings: for ^18F-mFBG biodistribution 4 h p.i., Blood / ^18F-mFBG biodistribution 4 h p.i., Bone / ^18F-mFBG biodistribution 4 h p.i., Brown adipose / ^18F-mFBG biodistribution 4 h p.i., Heart / ^18F-mFBG biodistribution 4 h p.i., Kidney / ^18F-mFBG biodistribution 4 h p.i., Liver / ^18F-mFBG biodistribution 4 h p.i., Lungs / ^18F-mFBG biodistribution 4 h p.i., Muscle / ^18F-mFBG biodistribution 4 h p.i., Pancreas / ^18F-mFBG biodistribution 4 h p.i., Small intestine / ^18F-mFBG biodistribution 4 h p.i., Spleen / ^18F-mFBG biodistribution 4 h p.i., Tumour / ^18F-mFBG biodistribution 4 h p.i., Tumour:blood / ^18F-mFBG biodistribution 4 h p.i., Tumour:muscle: Kelly, 3 days
Experimental: (§1) All studies were conducted in compliance with licenses issued under the UK Animals (Scientific Procedures) Act 1986 and approved by the Institute of Cancer Research Animal Welfare and Ethical Review Body (AWERB) according to the United Kingdom National Cancer Research Institute Guidelines for Animal Welfare in Cancer Research (project license PCC916B22, Animals in Science Regulation Unit, Home Office Science, London, UK)[65]. Female Nu(NCr)-Foxn1nu mice (5–7 weeks; 20–22 g) obtained from an in-house breeding colony were used in the studies. Animals were housed in a temperature-controlled facility with 12 h on–12 h off light cycle and provided water and laboratory rodent food ad libitum. Subcutaneous xenografts were generated by injection of either Kelly (5 × 10^6/0.1 mL PBS/Matrigel 30% v/v; BD Matrigel Matrix, BD Bioscience, San Jose, California, US) or SK-N-BE(2)C (1 × 10^6/0.1 mL PBS/Matrigel) into the lower flank. For the treatment studies, AZD2014 stock solution in DMSO was diluted in PEG400 to a final concentration of 2 mg/mL (10% DMSO maximum). When tumours reached ~ 100 mm^3 (calliper measurements using formula: Volume = (Width(2) × Length)/2), mice were treated daily, for a total of either 1, 3 or 7 days, by oral gavage with AZD2014 (20 or 25 mg/kg/day) or vehicle control. Mice were monitored daily for body weight or other adverse effects.
(§2) When the tumours reached approximately 100–200 mm^3, mice were anaesthetised with an isoflurane/O2 mixture (1.5–2.0% v/v) and intravenously injected with either ^18F-mFBG (~ 7.5 MBq) or ^123I-mIBG (~ 20 MBq). Mice were then imaged using an Albira PET/SPECT/CT scanner (Bruker, Coventry, UK). Whole body PET static images were acquired after 1 and 4 h post-injection (p.i.) for 10 min with an energy window of 358 to 664 keV followed by CT acquisition. Acquisition, reconstruction and image analysis were performed as described previously. Following the final scan, the mice were sacrificed and the major organs were excised, weighed and their associated radioactivity was measured using a γ-counter. Biodistribution and image quantification were expressed as a percentage of injected dose per gram of tissue (%ID/g), whereby 1 cm^3 on PET acquisitions were assumed to equal 1 g (n ≥ 3 mice ± SD).

[2] = test system: SK-N-BE(2)C xenografts; experiment: Ex vivo biodistribution (γ-counter), mice bearing SK-N-BE(2)C xenografts; format: in vivo
Experimental: as §1, §2

[3] = SK-N-BE(2)C xenografts, 4 h p.i.
[4] = SK-N-BE(2)C, 3 Day AZD2014 (20 mg/kg/day)
[5] = SK-N-BE(2)C, 1 day AZD2014 (20 mg/kg/day)

Compound: N=C(N)NCc1cccc([18F])c1 [^18F-mFBG, ^18F-meta-fluorobenzylguanidine]
- tumour uptake ([1]; Kelly xenografts, 4 h p.i., n = 3): 0.30 ± 0.14 %ID/g
- ^18F-mFBG biodistribution 4 h p.i., Blood ([1]; AZD2014 (25 mg/kg/day)): 0.19 ± 0.03 %ID/g
- ^18F-mFBG biodistribution 4 h p.i., Bone ([1]; AZD2014 (25 mg/kg/day)): 0.99 ± 0.07 %ID/g
- ^18F-mFBG biodistribution 4 h p.i., Brown adipose ([1]; AZD2014 (25 mg/kg/day)): 7.20 ± 0.88 %ID/g
- ^18F-mFBG biodistribution 4 h p.i., Heart ([1]; AZD2014 (25 mg/kg/day)): 4.22 ± 0.85 %ID/g
- ^18F-mFBG biodistribution 4 h p.i., Kidney ([1]; AZD2014 (25 mg/kg/day)): 0.97 ± 0.17 %ID/g
- ^18F-mFBG biodistribution 4 h p.i., Liver ([1]; AZD2014 (25 mg/kg/day)): 2.08 ± 0.45 %ID/g
- ^18F-mFBG biodistribution 4 h p.i., Lungs ([1]; AZD2014 (25 mg/kg/day)): 1.31 ± 0.39 %ID/g
- ^18F-mFBG biodistribution 4 h p.i., Muscle ([1]; AZD2014 (25 mg/kg/day)): 0.64 ± 0.17 %ID/g
- ^18F-mFBG biodistribution 4 h p.i., Pancreas ([1]; AZD2014 (25 mg/kg/day)): 1.25 ± 0.21 %ID/g
- ^18F-mFBG biodistribution 4 h p.i., Small intestine ([1]; AZD2014 (25 mg/kg/day)): 7.30 ± 1.11 %ID/g
- ^18F-mFBG biodistribution 4 h p.i., Spleen ([1]; AZD2014 (25 mg/kg/day)): 4.58 ± 0.77 %ID/g
- ^18F-mFBG biodistribution 4 h p.i., Tumour ([1]; AZD2014 (25 mg/kg/day)): 0.74 ± 0.25 %ID/g
- ^18F-mFBG biodistribution 4 h p.i., Tumour:blood ([1]; AZD2014 (25 mg/kg/day)): 4.16 ± 1.89
- ^18F-mFBG biodistribution 4 h p.i., Tumour:muscle ([1]; AZD2014 (25 mg/kg/day)): 1.23 ± 0.61
- ^18F-mFBG biodistribution 4 h p.i., Blood ([1]; Vehicle): 0.22 ± 0.05 %ID/g
- ^18F-mFBG biodistribution 4 h p.i., Bone ([1]; Vehicle): 1.43 ± 0.83 %ID/g
- ^18F-mFBG biodistribution 4 h p.i., Brown adipose ([1]; Vehicle): 5.84 ± 2.44 %ID/g
- ^18F-mFBG biodistribution 4 h p.i., Heart ([1]; Vehicle): 6.34 ± 1.41 %ID/g
- ^18F-mFBG biodistribution 4 h p.i., Kidney ([1]; Vehicle): 1.11 ± 0.47 %ID/g
- ^18F-mFBG biodistribution 4 h p.i., Liver ([1]; Vehicle): 2.37 ± 0.71 %ID/g
- ^18F-mFBG biodistribution 4 h p.i., Lungs ([1]; Vehicle): 1.52 ± 0.22 %ID/g
- ^18F-mFBG biodistribution 4 h p.i., Muscle ([1]; Vehicle): 0.74 ± 0.23 %ID/g
- ^18F-mFBG biodistribution 4 h p.i., Pancreas ([1]; Vehicle): 1.26 ± 0.28 %ID/g
- ^18F-mFBG biodistribution 4 h p.i., Small intestine ([1]; Vehicle): 6.57 ± 1.12 %ID/g
- ^18F-mFBG biodistribution 4 h p.i., Spleen ([1]; Vehicle): 3.77 ± 0.82 %ID/g
- ^18F-mFBG biodistribution 4 h p.i., Tumour ([1]; Vehicle): 0.39 ± 0.13 %ID/g
- ^18F-mFBG biodistribution 4 h p.i., Tumour:blood ([1]; Vehicle): 1.75 ± 0.29
- ^18F-mFBG biodistribution 4 h p.i., Tumour:muscle ([1]; Vehicle): 0.53 ± 0.01
- Tumour-to-blood ratio [2, 3]: 17.69 ± 10.00
- tumour-to-muscle ratio [2, 3]: 6.24 ± 3.64
- tumour uptake ([2]; SK-N-BE(2)C xenografts, 4 h p.i., n = 5): 2.96 ± 1.38 %ID/g
- ^18F-mFBG biodistribution 4 h p.i., Blood [2, 4]: 0.16 ± 0.02 %ID/g
- ^18F-mFBG biodistribution 4 h p.i., Bone [2, 4]: 2.42 ± 2.57 %ID/g
- ^18F-mFBG biodistribution 4 h p.i., Brown adipose [2, 4]: 5.32 ± 1.51^b %ID/g
- ^18F-mFBG biodistribution 4 h p.i., Heart [2, 4]: 3.20 ± 0.43^a %ID/g
- ^18F-mFBG biodistribution 4 h p.i., Kidney [2, 4]: 0.89 ± 0.13 %ID/g
- ^18F-mFBG biodistribution 4 h p.i., Liver [2, 4]: 1.74 ± 0.23 %ID/g
- ^18F-mFBG biodistribution 4 h p.i., Lungs [2, 4]: 1.04 ± 0.12 %ID/g
- ^18F-mFBG biodistribution 4 h p.i., Muscle [2, 4]: 0.55 ± 0.09 %ID/g
- ^18F-mFBG biodistribution 4 h p.i., Pancreas [2, 4]: 1.29 ± 0.51 %ID/g
- ^18F-mFBG biodistribution 4 h p.i., Small intestine [2, 4]: 4.88 ± 1.28 %ID/g
- ^18F-mFBG biodistribution 4 h p.i., Spleen [2, 4]: 2.27 ± 1.06 %ID/g
- ^18F-mFBG biodistribution 4 h p.i., Tumour [2, 4]: 3.95 ± 1.53 %ID/g
- ^18F-mFBG biodistribution 4 h p.i., Tumour:blood [2, 4]: 23.76 ± 6.20
- ^18F-mFBG biodistribution 4 h p.i., Tumour:muscle [2, 4]: 7.06 ± 1.79
- ^18F-mFBG biodistribution 4 h p.i., Blood [2, 5]: 0.18 ± 0.04 %ID/g
- ^18F-mFBG biodistribution 4 h p.i., Bone [2, 5]: 4.55 ± 2.15^c %ID/g
- ^18F-mFBG biodistribution 4 h p.i., Brown adipose [2, 5]: 5.47 ± 0.45^b %ID/g
- ^18F-mFBG biodistribution 4 h p.i., Heart [2, 5]: 4.34 ± 2.38 %ID/g
- ^18F-mFBG biodistribution 4 h p.i., Kidney [2, 5]: 0.98 ± 0.04 %ID/g
- ^18F-mFBG biodistribution 4 h p.i., Liver [2, 5]: 1.63 ± 0.69 %ID/g
- ^18F-mFBG biodistribution 4 h p.i., Lungs [2, 5]: 1.27 ± 0.68 %ID/g
- ^18F-mFBG biodistribution 4 h p.i., Muscle [2, 5]: 0.59 ± 0.16 %ID/g
- ^18F-mFBG biodistribution 4 h p.i., Pancreas [2, 5]: 1.09 ± 0.42 %ID/g
- ^18F-mFBG biodistribution 4 h p.i., Small intestine [2, 5]: 4.79 ± 1.21 %ID/g
- ^18F-mFBG biodistribution 4 h p.i., Spleen [2, 5]: 2.93 ± 0.82 %ID/g
- ^18F-mFBG biodistribution 4 h p.i., Tumour [2, 5]: 3.29 ± 1.01 %ID/g
